Experiment [1] concerns the target AD brain tissue (Homo sapiens, UniProt P05067). Kind of experiment: Competitive binding in AD brain tissue vs [3H]PiB. To be noted: for Ki: AD brain tissue, radioligand [3H]PiB; for max % Inh_PiB: maximal inhibition of [3H]PiB binding in AD brain tissue. As to the method: The binding potency for Abeta was determined using [^3H]PIB for these new compounds (FIG. 5B).
If the Ki value is smaller, these compounds are potent for AD brain tissue binding and are not selective for alpha-synuclein over abeta, or PD over AD.

The target in experiment [2] is alpha-synuclein fibrils (Homo sapiens, UniProt P37840). Description: Competitive binding to alpha-synuclein fibrils vs [3H]BF2846 (site 9). The settings on record: for Ki: alpha-synuclein fibrils, radioligand [3H]BF2846, binding site 9, read-out: Ki (nM), in a-syn fibrils v.s. [3H]BF2846; for max % inh_site9: maximal inhibition of [3H]BF2846 binding to alpha-synuclein fibrils.

For orientation: Ki means the equilibrium dissociation constant of an inhibitor or competing ligand from its target.

The structures appear in SMILES notation.

AD brain tissue, sequence (P05067 whole entry): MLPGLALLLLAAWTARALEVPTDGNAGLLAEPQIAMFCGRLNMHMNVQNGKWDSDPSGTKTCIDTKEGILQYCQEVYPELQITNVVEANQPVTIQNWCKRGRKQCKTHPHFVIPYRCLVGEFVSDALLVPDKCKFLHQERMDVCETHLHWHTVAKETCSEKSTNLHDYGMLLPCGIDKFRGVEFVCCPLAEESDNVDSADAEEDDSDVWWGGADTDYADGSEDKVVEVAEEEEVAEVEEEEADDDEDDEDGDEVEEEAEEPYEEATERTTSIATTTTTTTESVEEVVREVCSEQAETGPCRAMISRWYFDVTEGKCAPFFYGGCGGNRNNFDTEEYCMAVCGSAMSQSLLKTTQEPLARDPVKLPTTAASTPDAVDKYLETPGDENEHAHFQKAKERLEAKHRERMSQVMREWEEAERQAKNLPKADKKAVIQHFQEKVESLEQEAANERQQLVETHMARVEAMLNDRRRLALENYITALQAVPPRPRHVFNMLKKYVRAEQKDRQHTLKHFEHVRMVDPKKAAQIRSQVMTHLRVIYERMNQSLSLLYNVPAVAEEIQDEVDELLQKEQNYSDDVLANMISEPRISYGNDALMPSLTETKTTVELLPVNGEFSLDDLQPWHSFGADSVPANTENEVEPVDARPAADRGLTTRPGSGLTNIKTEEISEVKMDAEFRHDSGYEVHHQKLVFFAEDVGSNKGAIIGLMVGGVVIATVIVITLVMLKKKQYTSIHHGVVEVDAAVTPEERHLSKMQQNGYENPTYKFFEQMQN

Turning to `COc1ccc(Nc2ccc3cc(O)ccc3n2)cn1` [TZ61-23], in experiment [1], the Ki amounted to 36 ± 37 nM and the “max % Inh_PiB” value came out at 30%. For the same compound, in experiment [2], the Ki is 1.56 nM and the “max % inh_site9” value was 20%.
In the same order, the values of `COc1ccc(Nc2ccc3cc(OC/C=C/I)ccc3n2)cn1` [TZ61-84] are 13.2 ± 17.2 nM, 90%, 21.5 ± 34 nM and 100%.
In the same order, the values of `COc1ccc(Nc2nc3ccccc3cc2N)cn1` [TZ64-73] are 6.6 ± 2.7 nM, 30%, 4.6 nM and 20%.
The matching figures for `COc1ccc(Nc2ccc3ccc(N)cc3n2)cn1` [TZ64-87]: 36 ± 30 nM, 30%, 3.07 nM and 50%.
On to `COc1ccc2nc(Nc3ccc(C=O)o3)ccc2c1` [TZ64-91], for which, in experiment [1], the Ki came out at 53 ± 34 nM and the “max % Inh_PiB” value is recorded as 50%. Besides, in experiment [2], the Ki amounted to 1.4 nM and the “max % inh_site9” value came out at 70%.
In the case of `COc1ccc(Nc2ccc3cc(Br)ccc3n2)cn1` [TZ64-105], the Ki in experiment [1] is more than 1000 nM. For the same compound, in experiment [2], the Ki was determined as 18.7 nM and the “max % inh_site9” value was 50%.
On to `CCc1ccc(Nc2ccc3cc(OCCN4CCCCC4)ccc3n2)cn1` [TZ80-30], for which, in experiment [1], the Ki was found to be 158 ± 36 nM and the “max % Inh_PiB” value is on record as 80%. In experiment [2], the Ki stood at 14.3 ± 25.4 nM and the “max % inh_site9” value was found to be 100%.
As for `COc1ccc(Nc2ccc3cc(OC(F)F)ccc3n2)cn1` [TZ80-37], in experiment [1], the inhibition constant Ki was 99 ± 90 nM and the “max % Inh_PiB” value is reported as 70%. In addition, in experiment [2], the Ki turned out to be 22.9 ± 28.2 nM and the “max % inh_site9” value worked out at 60%.
Take `COc1ccc(Nc2ccc3cc(OCc4ccncc4)ccc3n2)cn1` [TZ80-42]: in experiment [1], the affinity corresponds to a Ki of 72 ± 56 nM and the “max % Inh_PiB” value was found to be 60%. Also, in experiment [2], the inhibition constant (Ki) turned out to be 16.6 ± 22.6 nM and the “max % inh_site9” value was 70%.
For the compound `COc1ccc(Nc2ccc3cc(OCCF)ccc3n2)cn1.Cl` [TZ80-55], the Ki is more than 1000 nM in experiment [1] and 26.1 nM in experiment [2]. Further, the “max % inh_site9” value in experiment [2] amounted to 70%.
As to `COc1ccc2nc(Nc3ccnc(OC)c3)ccc2c1.Cl` [TZ80-59-B], in experiment [1], the affinity corresponds to a Ki of 108 ± 73 nM and the “max % Inh_PiB” value is listed as 100%. Moreover, in experiment [2], the Ki worked out at 17.9 ± 31.7 nM and the “max % inh_site9” value is reported as 70%.
The matching figures for `COc1ccc(Nc2ccc3cc(OCc4cccnc4)ccc3n2)cn1.Cl` [TZ80-66-B]: 25.2 ± 21.7 nM, 80%, 30.4 ± 42.1 nM and 70%.
In the same order, the values of `COc1cccc(COc2ccc3nc(Nc4ccc(OC)nc4)ccc3c2)c1` [TZ80-77] are 15 ± 23.5 nM, 100%, 32.8 ± 43.8 nM and 100%.
In the same order, the values of `COc1ccc2nc(Nc3nc4ccc(N(C)C)cc4s3)ccc2c1` [TZ80-83] are 50 ± 36 nM, 80%, 24.1 ± 39.7 nM and 100%.
For `CSc1ccc(Nc2ccc3cc(OC/C=C/I)ccc3n2)cn1` [TZ80-106], the Ki in experiment [1] was more than 1000 nM. Besides, in experiment [2], the Ki amounted to 15 ± 12.4 nM and the “max % inh_site9” value is given as 100%.
For the compound `COc1ccc(Nc2ccc3cc(OC/C=C/CF)ccc3n2)cn1` [TZ80-156], the results for the Ki in experiment [1] and in experiment [2] were more than 1000 nM and 14.9 ± 19.1 nM, respectively. Moreover, the “max % inh_site9” value in experiment [2] is reported as 100%.
Regarding `CC(C)Oc1ccc(Nc2ccc3cc(OCCF)ccc3n2)cn1` [TZ83-39], in experiment [1], the Ki was 142 ± 103 nM and the “max % Inh_PiB” value amounted to 20%. For the same compound, in experiment [2], the Ki was 30.1 nM and the “max % inh_site9” value was determined as 60%.
Turning to `CCOc1ccc(Nc2ccc3cc(OCCF)ccc3n2)cn1.Cl` [TZ83-40], in experiment [1], affinity was put at a Ki of 354 ± 407 nM and the “max % Inh_PiB” value was determined as 40%. Moreover, in experiment [2], the Ki was found to be 13.3 ± 26.1 nM and the “max % inh_site9” value was 60%.
